Assay results: EPA's ToxRefDB 2

Experiments:
dog [1] = details: Subchronic oral toxicity in nonrodent, beagle, Capsule, dose end: 91 day, group: systemic
rat [2] = details: Chronic toxicity; other; Oral; Feed; dose end: 24 month; group: systemic; systemic / organ weight / testes / nos + systemic / pathology gross / testes / reduced size + systemic / pathology microscopic / testes / …
rat [3] = details: Prenatal developmental toxicity study, sprague dawley, Oral, Gavage/Intubation, dose end: 15 GD
rabbit [4] = details: Prenatal developmental toxicity study, new zealand white, Oral, Gavage/Intubation, dose end: 18 GD
mouse [5] = details: Combined chronic toxicity/carcinogenicity; cd1; Oral; [Not Specified]; dose end: 18 month; group: systemic; systemic / pathology microscopic / lung / adenoma + systemic / pathology microscopic / lung / carcinoma
dog [6] = details: Chronic toxicity; beagle; Oral; Capsule; dose end: 26 week; group: systemic; systemic / in life observation / clinical signs / defecation (diarrhea) + systemic / in life observation / clinical signs / mucoid stools + …
rat [7] = details: Subchronic oral toxicity in rodents, sprague dawley, Feed, dose end: 91 day, group: systemic
rat [8] = details: Multigenerational reproductive toxicity study, sprague dawley, Oral, Feed, dose end: 2 generation
rabbit [9] = details: Prenatal developmental toxicity study, other, Oral, Gavage/Intubation, dose end: 19 GD
dog [10] = details: Chronic toxicity, beagle, Oral, Capsule, dose end: 52 week, group: systemic
mouse [11] = details: Carcinogenicity, cd1, Oral, Feed, dose end: 80 week, group: systemic
mouse [12] = details: Carcinogenicity, b6c3f1, Oral, Feed, dose end: 105 week, group: systemic
rat [13] = details: Subchronic oral toxicity in rodents, fischer, Feed, dose end: 13 week
mouse [14] = details: Subchronic oral toxicity in rodents, b6c3f1, Feed, dose end: 13 week, group: systemic
[15] = systemic / clinical chemistry / alanine aminotransferase (alt/sgpt) / alanine aminotransferase (alt/sgpt) + systemic / in life observation…
[16] = systemic / in life observation / body weight / body weight
[17] = group: developmental, developmental / developmental malformation / bone / incomplete ossification + developmental / developmental malformation / general / [other…
[18] = group: maternal, systemic / in life observation / body weight / body weight + systemic / in life observation / clinical signs / fat, discoloration + systemic…
[19] = group: developmental, systemic / in life observation / body weight / fetal weight
[20] = group: maternal, systemic / in life observation / clinical signs / anogenital staining + systemic / in life observation / clinical signs / defecation + …
[21] = systemic / organ weight / testes / nos + systemic / in life observation / body weight / body weight + systemic / in life observation / food …
[22] = group: parental, systemic / pathology gross / testes / degeneration + systemic / pathology microscopic / testes / aspermia + systemic / pathology microscopic…
[23] = group: reproductive, reproductive / reproductive performance / fertility / fertility + reproductive / reproductive performance / mating / mating
[24] = group: developmental, developmental / developmental malformation / bone / [other]
[25] = group: maternal, reproductive / reproductive performance / resorptions / resorptions + systemic / in life observation / clinical signs / defecation (diarrhea…
[26] = systemic / in life observation / body weight / body weight gain
[27] = systemic / in life observation / body weight / body weight gain + systemic / in life observation / body weight / body weight + systemic / in…
[28] = systemic / in life observation / body weight / body weight gain + systemic / in life observation / body weight / body weight + systemic / …
[29] = systemic / in life observation / body weight / body weight + systemic / hematology / reticulocyte / reticulocyte
[30] = group: developmental, developmental / offspring survival late / [other] / [other]
[31] = group: maternal, reproductive / offspring survival early / birth index / birth index
[32] = group: maternal, reproductive / reproductive performance / estrous cycle / length
[33] = group: systemic, systemic / pathology microscopic / spleen / hemosiderosis + systemic / in life observation / clinical signs / fur (altered appearance)
[34] = systemic / in life observation / body weight / body weight + systemic / in life observation / body weight / body weight gain + systemic / …

CC1(C)CN=C(NN=C(C=Cc2ccc(C(F)(F)F)cc2)C=Cc2ccc(C(F)(F)F)cc2)NC1 [Hydramethylnon] was tested, and the LOAEL (dog [1]; [15]) was 6 mg/kg/day, the NOAEL (dog [1]; [15]) was 3 mg/kg/day and the LEL (dog [1]; [16]) was 3 mg/kg/day. For the same compound, the NEL (dog [1]; [16]) was < 3 mg/kg/day, the LEL (rat [2]) was 4.9 mg/kg/day and the LOAEL (rat [2]) was 4.9 mg/kg/day. It also gave an NEL (rat [2]) of 2.4 mg/kg/day, an NOAEL (rat [2]) of 2.4 mg/kg/day and an LEL (rat [3]; [17]) of 30 mg/kg/day. It also gave an LOAEL (rat [3]; [17]) of 30 mg/kg/day, an NEL (rat [3]; [17]) of 10 mg/kg/day and an NOAEL (rat [3]; [17]) of 10 mg/kg/day. It also gave an LEL (rat [3]; group: maternal, systemic / in life observation / body weight / body weight + systemic / in life observation / clinical signs / fat, discoloration) of 10 mg/kg/day, an LOAEL (rat [3]; [18]) of 30 mg/kg/day and an NEL (rat [3]; [18]) of 3 mg/kg/day. It also gave an NOAEL (rat [3]; [18]) of 10 mg/kg/day, an LEL (rabbit [4]; [19]) of 10 mg/kg/day and an LOAEL (rabbit [4]; [19]) of 10 mg/kg/day. For the same compound, the NEL (rabbit [4]; [19]) was 5 mg/kg/day, the NOAEL (rabbit [4]; [19]) was 5 mg/kg/day and the LEL (rabbit [4]; [20]) was 10 mg/kg/day. For the same compound, the LOAEL (rabbit [4]; [20]) was 10 mg/kg/day, the NEL (rabbit [4]; [20]) was 5 mg/kg/day and the NOAEL (rabbit [4]; [20]) was 5 mg/kg/day. The LEL (mouse [5]) was 4.45 mg/kg/day, the LOAEL (mouse [5]) was 4.45 mg/kg/day and the NEL (mouse [5]) was < 4.45 mg/kg/day. For the same compound, the NOAEL (mouse [5]) was < 4.45 mg/kg/day, the LEL (dog [6]) was 3 mg/kg/day and the LOAEL (dog [6]) was 3 mg/kg/day. For the same compound, the NEL (dog [6]) was 1 mg/kg/day, the NOAEL (dog [6]) was 1 mg/kg/day and the LEL (rat [7]; systemic / organ weight / testes / nos) was 2.5 mg/kg/day. It also gave an NEL (rat [7]; [21]) of 1.25 mg/kg/day, an NOAEL (rat [7]; [21]) of 2.5 mg/kg/day and an LOAEL (rat [7]; systemic / organ weight / testes / nos + systemic / pathology microscopic / testes / atrophy) of 5 mg/kg/day. The LEL (rat [8]; [22]) was 3.32 mg/kg/day, the LOAEL (rat [8]; [22]) was 3.32 mg/kg/day and the NEL (rat [8]; [22]) was 1.66 mg/kg/day. The NOAEL (rat [8]; [22]) was 1.66 mg/kg/day, the LEL (rat [8]; [23]) was 5.07 mg/kg/day and the LOAEL (rat [8]; [23]) was > 5.07 mg/kg/day. For the same compound, the NEL (rat [8]; [23]) was 3.32 mg/kg/day and the NOAEL (rat [8]; [23]) was ≥ 5.07 mg/kg/day.
COS(=O)(=O)[O-].Cn1c(-c2ccccc2)cc(-c2ccccc2)[n+]1C [Difenzoquat metilsulfate] was tested, and the LEL (rabbit [9]; [24]) was 250 mg/kg/day, the LOAEL (rabbit [9]; [24]) was 250 mg/kg/day and the NEL (rabbit [9]; [24]) was 100 mg/kg/day. It also gave an NOAEL (rabbit [9]; [24]) of 100 mg/kg/day, an LEL (rabbit [9]; [25]) of 250 mg/kg/day and an LOAEL (rabbit [9]; [25]) of 250 mg/kg/day. The NEL (rabbit [9]; [25]) was 100 mg/kg/day, the NOAEL (rabbit [9]; [25]) was 100 mg/kg/day and the LOAEL (dog [10]; [26]) was 30 mg/kg/day. For the same compound, the LEL (dog [10]; [27]) was 30 mg/kg/day, the NEL (dog [10]; [27]) was 20 mg/kg/day and the NOAEL (dog [10]; [27]) was 20 mg/kg/day. The LEL (mouse [11]; [26]) was 69.4 mg/kg/day, the LOAEL (mouse [11]; [26]) was 69.4 mg/kg/day and the NEL (mouse [11]; [28]) was 26.9 mg/kg/day. The NOAEL (mouse [11]; [28]) was 26.9 mg/kg/day.
Work on CC(C)(C)c1cc(O)ccc1O [tert-Butylhydroquinone] yielded an LOAEL (mouse [12]; [16]) of 600 mg/kg/day, an LEL (mouse [12]; [29]) of 600 mg/kg/day and an NEL (mouse [12]; [29]) of 300 mg/kg/day. The NOAEL (mouse [12]; [29]) was 300 mg/kg/day, the LEL (rat [13]; [30]) was 750 mg/kg/day and the NEL (rat [13]; [30]) was 400 mg/kg/day. For the same compound, the LOAEL (rat [13]; [31]) was 1000 mg/kg/day, the NOAEL (rat [13]; [31]) was 500 mg/kg/day and the LEL (rat [13]; [32]) was 200 mg/kg/day. For the same compound, the NEL (rat [13]; [32]) was < 200 mg/kg/day, the LOAEL (rat [13]; group: systemic, systemic / in life observation / body weight / body weight + systemic / in life observation / body weight / offspring (pup) weight) was 400 mg/kg/day and the NOAEL (rat [13]; group: systemic, systemic / in life observation / body weight / body weight + systemic / in life observation / body weight / offspring (pup) weight + …) was 200 mg/kg/day. For the same compound, the LEL (rat [13]; [33]) was 200 mg/kg/day, the NEL (rat [13]; [33]) was < 200 mg/kg/day and the LOAEL (mouse [14]; systemic / in life observation / body weight / body weight + systemic / in life observation / body weight / body weight gain) was 1950 mg/kg/day. For the same compound, the LEL (mouse [14]; [34]) was 1950 mg/kg/day, the NEL (mouse [14]; [34]) was 880 mg/kg/day and the NOAEL (mouse [14]; [34]) was 880 mg/kg/day.
